Values quoted from earlier work in patent publication US6346524B1, “Cancer treatment with temozolomide” (Schering Corporation, priority 1999, dated 2002).

Legend:
advanced melanoma [1] = conditions: patients having advanced melanoma; Newlands et al. Br. J. Cancer 65 (2) 287-291 (1992)
advanced melanoma [2] = conditions: patients with advanced melanoma; Journal of Clinical Oncology, Vol 13, No. 4, 1995, pp 910-913

For Cn1nnc2c(C(N)=O)ncn2c1=O [Temozolomide, 3,4-dihydro-3-methyl-4-oxoimidazo-[5,1-d] 1,2,3,4-tetrazin-8-carboximide], the “clinical responses achieved, % of patients” value (advanced melanoma [1]) is listed as 17% and the “clinical response achieved, % of patients” value (advanced melanoma [2]) is listed as 21%.
